The text below walks through data of patent US5328909A, “Cyclopropenone derivatives” (Mitsubishi Kasei Corporation, priority 1991, dated 1994).

Counter-ions that a name gives are not always drawn.

In this test the target is T1, m-calpain (Rattus norvegicus, UniProt Q07009).
T1 construct: m-calpain was purified from rat brain; from tissue; host or cells: rat brain
T1 sequence (Q07009 20-700 limits assumed): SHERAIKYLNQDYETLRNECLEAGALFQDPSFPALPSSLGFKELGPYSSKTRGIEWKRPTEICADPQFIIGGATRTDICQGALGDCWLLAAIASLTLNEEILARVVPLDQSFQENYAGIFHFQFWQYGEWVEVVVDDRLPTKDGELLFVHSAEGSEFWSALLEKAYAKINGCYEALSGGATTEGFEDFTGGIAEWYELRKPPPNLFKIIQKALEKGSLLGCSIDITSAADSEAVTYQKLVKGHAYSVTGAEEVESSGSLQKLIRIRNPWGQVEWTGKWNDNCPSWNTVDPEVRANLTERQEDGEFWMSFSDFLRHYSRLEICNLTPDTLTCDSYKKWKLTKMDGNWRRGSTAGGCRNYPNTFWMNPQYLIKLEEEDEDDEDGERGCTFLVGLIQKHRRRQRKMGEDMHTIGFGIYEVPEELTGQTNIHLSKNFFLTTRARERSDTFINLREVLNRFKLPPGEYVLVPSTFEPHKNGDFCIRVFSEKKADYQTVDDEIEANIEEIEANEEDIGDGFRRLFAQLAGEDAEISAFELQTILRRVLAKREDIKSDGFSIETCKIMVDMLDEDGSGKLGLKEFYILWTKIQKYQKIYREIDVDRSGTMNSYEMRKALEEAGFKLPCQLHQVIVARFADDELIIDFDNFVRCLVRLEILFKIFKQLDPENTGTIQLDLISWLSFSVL
T1 sequence (Q64537 1-270 partner): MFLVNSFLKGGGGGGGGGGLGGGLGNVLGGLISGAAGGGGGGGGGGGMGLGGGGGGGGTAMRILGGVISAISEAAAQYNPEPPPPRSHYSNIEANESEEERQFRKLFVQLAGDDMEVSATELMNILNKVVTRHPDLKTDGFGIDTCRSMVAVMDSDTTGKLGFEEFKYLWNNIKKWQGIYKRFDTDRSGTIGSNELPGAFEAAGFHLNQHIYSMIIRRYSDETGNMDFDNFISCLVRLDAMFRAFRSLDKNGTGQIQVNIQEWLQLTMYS
Nature of the test: Thiol protease inhibitory activity against m-calpain purified from rat brain. It is filed as biochemical. The note with it: Table 4; rat brain enzyme; read-out: Inhibitory activity against m-calpain IC50. The procedure:
Inhibitory activity against papain (P-3125, Sigma) and cathepsin B (C-6286, Sigma) was assayed according to the method described in a literature [Biochemical Journal, 201, 189 (1982)]. Capthesin L was purified from rat kidney according to the method in a literature [Journal of Biochemistry, 100, 35 (1986)], and the inhibitory activity against it was assayed in the same manner as described in the above literature for cathepsin B. Further, m-calpain was purified from rat brain according to a known method [Journal of Biological Chemistry, 254, p.3210 (1984)] and the inhibitory activity against it was assayed by a method described in a literature [Journal of Biological Chemistry, 259, 12489 (1984)]. The results are showing in Tables 3 and 4. It is evident from Tables 3 and 4 that the compounds in the present invention have a potent inhibitory activity against thiol proteases such as papain, cathepsin B, cathepsin L, m-calpain or the like.
In the case of `CC(C)C[C@H](NC(=O)CCS(=O)(=O)c1ccccc1)C(=O)N[C@@H](C(C)C)[C@@H](O)c1c(-c2ccccc2)c1=O` [57 (No. 170)], the IC50 (commonly the concentration that gives 50% inhibition) worked out at 3.1 µM.

As to `CC(C)C[C@H](NC(=O)c1c(F)cccc1F)C(=O)N[C@@H](C(C)C)[C@@H](O)c1c(-c2ccccc2)c1=O` [59 (No. 175), 2-[(1S, 2S)-2-{(S)-2-(2,6-difluorobenzoylamino)-4-methylvalerylamino}-1-hydroxy-3-methylbutyl]-3-phenylcyclopropenone], the IC50 stood at 1.6 µM.

In the case of `CC(C)C[C@H](NC(=O)c1ccccc1Cl)C(=O)N[C@@H](C(C)C)[C@@H](O)c1c(-c2ccccc2)c1=O` [60 (No. 178), 2-[(1S, 2S)-2-{(S)-2-(2-chlorobenzoylamino)-4-methylvalerylamino}-hydroxy-3-methylbutyl]-3-phenylcyclopropenone], the IC50 is 1.1 µM.

Take `CC(C)C[C@H](NC(=O)c1ccc(Cl)cc1)C(=O)N[C@@H](C(C)C)[C@@H](O)c1c(-c2ccccc2)c1=O` [62 (No. 180), 2-[(1S, 2S)-2-{(S)-2-(4-chlorobenzoylamino)-4-methylvalerylamino}-1-hydroxy-3-methylbutyl]-3-phenylcyclopropenone]: the IC50 amounted to 1.4 µM. Then `Cc1ccccc1C(=O)N[C@@H](CC(C)C)C(=O)N[C@@H](C(C)C)[C@@H](O)c1c(-c2ccccc2)c1=O` [63 (No. 184), 2-[(1S, 2S)-1-hydroxy-3-methyl-2-{(S)-4-methyl-2-(2-toluoylamino)valerylamino}butyl]-3-phenylcyclopropenone], with 1.6 µM; and `COC(=O)c1ccc(C(=O)N[C@@H](CC(C)C)C(=O)N[C@@H](C(C)C)[C@@H](O)c2c(-c3ccccc3)c2=O)cc1` [65 (No. 191), 2-[(1S, 2S)-1-hydroxy-2-{(S)-2-(4-methoxycarbonylbenzoylamino)-4-methylvalerylamino}-3-methylbutyl]-3-phenylcyclopropenone], with 1.8 µM. For `CC(C)C[C@H](NC(=O)c1ccco1)C(=O)N[C@@H](C(C)C)[C@@H](O)c1c(-c2ccccc2)c1=O` [67 (No. 197), 2-[(1S, 2S)-2-{(S)-2-(2-furoylamino)-4-methylvalerylamino}-1-hydroxy-3-methylbutyl]-3-phenylcyclopropenone], the IC50 was 0.88 µM.

On to `CC(C)C[C@H](NC(=O)c1cccs1)C(=O)N[C@@H](C(C)C)[C@@H](O)c1c(-c2ccccc2)c1=O` [68 (No. 200), 2-[(1S, 2S)-1-hydroxy-3-methyl-2-{(S)-4-methyl-2-(2-thenoylamino)valerylamino}butyl]-3-phenylcyclopropenone], for which the IC50 amounted to 3.1 µM. Then `Cc1cc(C(=O)N[C@@H](CC(C)C)C(=O)N[C@@H](C(C)C)[C@@H](O)c2c(-c3ccccc3)c2=O)n(C)n1` [69 (No. 203), 2-[(1S, 2S)-2-{(S)-2-(1,3-dimethyl-5-pyrazolylcarbonylamino)-4-methylvalerylamino}-1-hydroxy-3-methylbutyl]-3-phenylcyclopropenone], with 3 µM; and `CC(C)C[C@H](NC(=O)c1cccnc1)C(=O)N[C@@H](C(C)C)[C@@H](O)c1c(-c2ccccc2)c1=O` [71 (No. 209), 2-[(1S, 2S)-1-hydroxy-3-methyl-2-((S)-4-methyl-2-nicotinoylaminovalerylamino)butyl]-3-phenylcyclopropenone], with 1.3 µM; and `CC(C)C[C@H](NC(=O)c1ccncc1)C(=O)N[C@@H](C(C)C)[C@@H](O)c1c(-c2ccccc2)c1=O` [72 (No. 213), 2-[(1S, 2S)-1-hydroxy-2-((S)-2-isonicotinoylamino-4-methylvalerylamino)-3-methylbutyl]-3-phenylcyclopropenone], with 0.4 µM. With `CC(C)C[C@H](NC(=O)c1ccnc(Cl)c1)C(=O)N[C@@H](C(C)C)[C@@H](O)c1c(-c2ccccc2)c1=O` [73 (No. 216), 2-[(1s, 2S)-2-{(S)-2-(2-chloroisonicotinoylamino)-4-methylvalerylamino}-1-hydroxy-3-methylbutyl]-3-phenylcyclopropenone], the IC50 was found to be 1.4 µM.

Consider `CC(C)C[C@H](NC(=O)c1ccc2ccccc2n1)C(=O)N[C@@H](C(C)C)[C@@H](O)c1c(-c2ccccc2)c1=O` [74 (No. 219), 2-[(1S, 2S)-1-hydroxy-3-methyl-2-{(S)-4-methyl-2-(2-quinolylcarbonylamino)valerylamino}butyl-3-phenylcyclopropenone hydrochloride], for which the IC50 is 0.8 µM. As for `CC(C)C[C@H](NC(=O)NCc1ccccc1)C(=O)N[C@@H](C(C)C)[C@@H](O)c1c(-c2ccccc2)c1=O` [75 (No. 225), 2-[(1S, 2S)-2-{(S)-2-(3-benzylureido)-4-methylvalerylamino}-1-hydroxy-3-methylbutyl]-3-phenylcyclopropenone], the IC50 amounted to 3.3 µM. Regarding `CC(C)C[C@H](NC(=O)Nc1ccccc1)C(=O)N[C@@H](C(C)C)[C@@H](O)c1c(-c2ccccc2)c1=O` [76 (No. 227)], the IC50 came out at 4.6 µM. For the compound `CCCS(=O)(=O)N[C@@H](CC(C)C)C(=O)N[C@@H](C(C)C)[C@@H](O)c1c(-c2ccccc2)c1=O` [77 (No. 232), 2-[(1S, 2S)-1-hydroxy-3-methyl-2-((S)-4-methyl-2-propylsulfonylaminovalerylamino)butyl]-3-phenylcyclopropenone], the IC50 was 0.95 µM.

Turning to `CC(C)C[C@H](NS(=O)(=O)Cc1ccccc1)C(=O)N[C@@H](C(C)C)[C@@H](O)c1c(-c2ccccc2)c1=O` [78 (No. 237), 2-[(1S, 2S)-2-((S)-2-benzylsulfonylamino-4-methylvalerylamino)-1-hydroxy-3-methylbutyl]-3-phenylcyclopropenone], the IC50 stood at 0.44 µM. With `CC(C)C[C@H](NS(=O)(=O)Cc1ccccc1)C(=O)N[C@@H](C(C)C)[C@H](O)c1c(-c2ccccc2)c1=O` [79 (No. 237), 2-[(1R, 2S)-2-((S)-2-benzylsulfonylamino-4-methylvalerylamino)-1-hydroxy-3-methylbutyl]-3-phenylcyclopropenone], the IC50 is 1.8 µM. For the compound `CC(C)C[C@H](NS(=O)(=O)c1ccccc1)C(=O)N[C@@H](C(C)C)[C@@H](O)c1c(-c2ccccc2)c1=O` [80 (No. 239), 2-[(1S, 2S)-1-hydroxy-3-methyl-2-((S)-4-methyl-2-phenylsulfonylaminovalerylamino)butyl]-3-phenylcyclopropenone], the IC50 was found to be 0.35 µM.

`CC(C)C[C@H](NS(=O)(=O)c1ccccc1)C(=O)N[C@@H](C(C)C)[C@H](O)c1c(-c2ccccc2)c1=O` [81 (No. 239), 2-[(1R, 2S)-1-hydroxy-3-methyl-2-((S)-4-methyl-2-phenylsulfonylaminovalerylamino)butyl]-3-phenylcyclopropenone]: the half-inhibitory concentration (IC50) was 4.3 µM.

For the compound `CC(C)C[C@H](NS(=O)(=O)c1ccc(F)cc1)C(=O)N[C@@H](C(C)C)[C@@H](O)c1c(-c2ccccc2)c1=O` [83 (No. 245), 2-[(1S, 2S)-2-{(S)-2-(4-fluorophenylsulfonylamino)-4-methylvalerylamino}-1-hydroxy-3-methylbutyl]-3-phenylcyclopropenone], the IC50 was determined as 3 µM. On to `CC(C)C[C@H](NS(=O)(=O)c1ccccc1Cl)C(=O)N[C@@H](C(C)C)[C@@H](O)c1c(-c2ccccc2)c1=O` [84 (No. 246), 2-[(1S, 2S)-2-{(S)-2-(2-chlorophenylsulfonylamino)-4-methylvalerylamino}-1-hydroxy-3-methylbutyl]-3-phenylcyclopropenone], for which the IC50 came out at 0.85 µM. For `CC(C)C[C@H](NS(=O)(=O)c1ccc(Cl)cc1)C(=O)N[C@@H](C(C)C)[C@@H](O)c1c(-c2ccccc2)c1=O` [85 (No. 248), 2-[(1S, 2S)-2-{(S)-2-(4-chlorophenylsulfonylamino)-4-methylvalerylamino}-1hydroxy-3-methylbutyl]-3-phenylcyclopropenone], the IC50 was determined as 0.84 µM. For the compound `Cc1ccc(S(=O)(=O)N[C@@H](CC(C)C)C(=O)N[C@@H](C(C)C)[C@@H](O)c2c(-c3ccccc3)c2=O)cc1` [86 (No. 251), 2-[(1S, 2S)-1-hydroxy-3-methyl-2-{(S)-4-methyl-2-(4-trisulfonylamino)valerylamino}butyl]-3-phenylcyclopropenone], the IC50 stood at 0.75 µM.
